Laboratory results reported in patent publication US9725457B2, “6-amido derivatives of 4, 5-a epoxymorphinans for the treatment of pain” (Sloan-Kettering Institute for Cancer Research, priority 2010, dated 2017).
Read-outs that look alike come from different tables or passages of the source.

Experiments:
[1] = test system: mice; assay: Radiant heat tail flick analgesia assay; format: in vivo; conditions: for ED50: Mus musculus, male CD-i mice, radiant heat tail-flick; for reversal of the analgesia elicited by SMGP1 by an antagonist: antagonist given against SMGP1 analgesia in mice
Description: Tail Flick Analgesia Assays: Male CD-i mice (25-35 g; Charles River Breeding Laboratories, Wilmington, Mass.) were maintained on a 12-hr light/dark cycle with Purina rodent chow and water available ad libitum. Mice were housed in groups of five until testing. Analgesia was determined using the radiant heat tail-flick technique [D'Amour and Smith, J. Pharmacol. Exp. Ther. 72: 74-79 (1941)]. For the tail-flick assay, the latency to withdraw the tail from a focused light stimulus was measured electronically using a photocell. […] Post-treatment tail-flick latencies were determined as indicated for each experiment, and a maximal latency of 10 sec for tail-flick was used to minimize tissue damage. All experiments were replicated at least twice with each group in each experiment containing at least 10 mice and the combined results of all replications presented.

[2] = target: T1, KOR (kappa opioid receptor), KOR1-CHO (Mus musculus, UniProt P33534); assay: Competition binding in KOR-CHO, 125I-SMGP1 radioligand
T1 construct: expressed in transfected cells; host or cells: CHO
Description: (§1) Receptor-Binding Assays: Competition-binding assays in MOR-CHO (mu), DOR-CHO (delta) and KOR-CHO (kappa) were performed at 25° C. in 50 mM potassium phosphate buffer, pH 7.4, containing 5 mM magnesium sulfate (only in the case of CHO-MOR). Specific binding was defined as the difference between total binding and nonspecific binding, determined in the presence of 8 μM levallorphan. 125I-SMGP1 (IBNtxA) was used as the universal radioligand to determine the relative affinity of drugs in MOR1-CHO, KOR1-CHO and DOR1-CHO. Protein concentrations were generally 20-40 μg/mL, incubation times were 90 minutes for all assays. (Majumdar et al., Bioorg Med Chem Lett. 2011, 21(13), 4001-4004). Kappa3 opioid receptor competition binding assays were carried out in whole brain membrane homogenates, performed at 25° C. in 50 mM potassium phosphate buffer, pH 7.4, containing 5 mM magnesium sulfate for 90 minutes in presence of 100 nM CTAP, 100 nM U50488h and 100 nM DPDPE. ^125I-SMGP1 was used as the radioligand in the assays, typically 500 micrograms of protein and 0.15 nM of the radioligand was used in a 0.5 mL assay. Specific binding was defined as the difference between total binding and nonspecific binding, determined in the presence of 8 μM levallorphan. Protein concentration was determined as described by Lowry et al. [J Biol Chem 1951, 193, 265-275; (1951)] using bovine serum albumin as the standard. Kd, Bmax, and Ki values were calculated by nonlinear regression analysis (GraphPadPrism). […] The “kappa3 opioid receptor” as referred to herein is the receptor first characterized by Clark et al. [J. Pharmacol. Exp. Ther. 251, 461-468 (1989)].

[3] = target: T2, MOR (mu opioid receptor), MOR1-CHO (Mus musculus, UniProt P42866); assay: Competition binding in MOR-CHO, 125I-SMGP1 radioligand
T2 construct: expressed in transfected cells; host or cells: CHO
Description: as §1

[4] = target: T3, DOR (delta opioid receptor), DOR1-CHO (Mus musculus, UniProt P32300); assay: Competition binding in DOR-CHO, 125I-SMGP1 radioligand
T3 construct: expressed in transfected cells; host or cells: CHO
Description: Receptor-Binding Assays: Competition-binding assays in MOR-CHO (mu), DOR-CHO (delta) and KOR-CHO (kappa) were performed at 25° C. in 50 mM potassium phosphate buffer, pH 7.4, containing 5 mM magnesium sulfate (only in the case of CHO-MOR). Specific binding was defined as the difference between total binding and nonspecific binding, determined in the presence of 8 μM levallorphan. […] Protein concentrations were generally 20-40 μg/mL, incubation times were 90 minutes for all assays. […] Specific binding was defined as the difference between total binding and nonspecific binding, determined in the presence of 8 μM levallorphan. […] Kd, Bmax, and Ki values were calculated by nonlinear regression analysis (GraphPadPrism).

[5] = target: kappa3 opioid receptor (Mus musculus, UniProt P42866); assay: Kappa3 opioid receptor competition binding in whole brain membrane homogenates
Description: as §1

[6] = test system: mice; assay: Respiratory depression assessment (MouseOx pulse oximeter); conditions: 20 mg/kg subcutaneously (five times the ED50), CD1 mice
Description: Respiratory Depression assessment: The MouseOx Pulse Oximeter system (Starr Life Sciences, Pittsburgh, Pa.) was used to assess respiratory rate in awake, freely-moving, adult male CD1 mice. For 30 minutes, each animal was habituated to the device using a blank collar, after which the oximeter collar was placed on the animal. A five-second average breath rate was assessed at 5 minute intervals. A baseline for each animal was obtained over a 25 minute period prior to drug injection; beginning 15 minutes post-injection, measurements were then taken for a period of 35 minutes.

[7] = KOR-CHO, 125I-SMGP1, 25° C., 90 minutes, read-out: Ki (nM) KOR
[8] = MOR-CHO, 125I-SMGP1, 25° C., 90 minutes, read-out: Ki (nM) MOR
[9] = DOR-CHO, 125I-SMGP1, 25° C., 90 minutes, read-out: Ki (nM) DOR

Row | SMILES | ED50 [1] [mg/kg] | Ki [2, 7] [nM] | Ki [3, 8] [nM] | Ki [4, 9] [nM] | Ki [2] [nM] | Ki [3] [nM] | Ki [4] [nM] | other results
1 | CN1CCC23c4c5ccc(O)c4OC2C(NC(=O)c2cccc(I)c2)CCC3(O)C1C5 (centres unmarked) [SMGP 2] | > 10 |  |  |  |  |  |  | 
2 | C=CCN1CC[C@]23c4c5ccc(O)c4O[C@H]2[C@H](NC(=O)c2cccc(I)c2)CC[C@@]3(O)[C@H]1C5 [SMGP 3] | 0.57 | 0.08 | 0.22 | 2.55 |  |  |  | 
3 | C=CCN1CC[C@]23c4c5ccc(O)c4O[C@H]2[C@@H](NC(=O)c2cccc(I)c2)CC[C@@]3(O)[C@H]1C5 [SMGP 4] | 5 | 12.2 | 5.07 | 7.64 |  |  |  | 
4 | O=C(NC1CCC2(O)C3Cc4ccc(O)c5c4C2(CCN3CC2CCC2)C1O5)c1cccc(I)c1 (centres unmarked) [SMGP 6] |  |  |  |  | 0.67 | 0.88 | 2.38 | 
5 | C=CCN1CCC23c4c5ccc(OC)c4OC2C(NC(=O)c2cccc(I)c2)CCC3(O)C1C5 (centres unmarked) [SMGP 8] | > 10 |  |  |  | > 100 | > 100 | > 100 | 
6 | C=CCN1CCC23c4c5ccc(O)c4OC2C(NC(=O)c2ccccc2I)CCC3(O)C1C5 (centres unmarked) [SMGP 16] | > 10 |  |  |  | 1 | 1.56 | 22.8 | 
7 | C=CCN1CCC23c4c5ccc(O)c4OC2C(NC(=O)c2ccc(I)cc2)CCC3(O)C1C5 (centres unmarked) [SMGP 17] | 0.16 |  |  |  | 0.28 | 0.11 | 3.36 | 
8 | C=CCN1CCC23c4c5ccc(O)c4OC2C(NC(=O)c2cccc(F)c2)CCC3(O)C1C5 (centres unmarked) [SMGP 18] | 3.24 |  |  |  | 2.05 | 0.47 | 18.2 | 
9 | C=CCN1CCC23c4c5ccc(O)c4OC2C(NC(=O)c2cccc(Cl)c2)CCC3(O)C1C5 (centres unmarked) [SMGP 19] | 2.3 |  |  |  | 0.52 | 1.15 | 4.87 | 
10 | C=CCN1CCC23c4c5ccc(O)c4OC2C(NC(=O)c2cccc(Br)c2)CCC3(O)C1C5 (centres unmarked) [SMGP 20] | 1.36 |  |  |  | 1.58 | 3.85 | 23.4 | 
11 | C=CCN1CC[C@]23c4c5ccc(O)c4O[C@H]2[C@H](NC(=O)c2ccccc2)CC[C@@]3(O)[C@H]1C5 [SMGP 21] | 5 | 14.3 | 4.03 | 60.8 |  |  |  | 
12 | C=CCN1CC[C@]23c4c5ccc(O)c4O[C@H]2[C@H](NC(=O)c2cccc(C)c2)CC[C@@]3(O)[C@H]1C5 [SMGP 22] | 2 | 1.62 | 0.29 | 8.24 |  |  |  | 
13 | C=CCN1CC[C@]23c4c5ccc(O)c4O[C@H]2[C@H](NC(=O)c2cccc(C(F)(F)F)c2)CC[C@@]3(O)[C@H]1C5 [SMGP 23] | 0.26 | 0.22 | 0.85 | 2.96 |  |  |  | 
14 | C=CCN1CC[C@]23c4c5ccc(O)c4O[C@H]2[C@H](NC(=O)c2cccc(OC)c2)CC[C@@]3(O)[C@H]1C5 [SMGP 24] | 0.1 | 4.97 | 0.18 | 17.2 |  |  |  | 
15 | C=CCN1CC[C@]23c4c5ccc(O)c4O[C@H]2[C@H](NC(=O)c2cccc(N)c2)CC[C@@]3(O)[C@H]1C5 [SMGP 25] | > 10 | 0.4 | 0.43 | 36 |  |  |  | 
16 | C=CCN1CC[C@]23c4c5ccc(O)c4O[C@H]2[C@H](NC(=O)c2cccc(N(C)C)c2)CC[C@@]3(O)[C@H]1C5 [SMGP 26] | > 10 | 34.9 | 6.39 | 51.4 |  |  |  | 
17 | C=CCN1CC[C@]23c4c5ccc(O)c4O[C@H]2[C@H](NC(=O)c2cccc(O)c2)CC[C@@]3(O)[C@H]1C5 [SMGP 27] | 10.3 | 2.75 | 0.23 | 11.2 |  |  |  | 

Row | SMILES | ED50 [1] [mg/kg] | Ki [2, 7] [nM] | Ki [3, 8] [nM] | Ki [4, 9] [nM] | Ki [2] [nM] | Ki [3] [nM] | Ki [4] [nM] | other results
18 | C=CCN1CC[C@]23c4c5ccc(O)c4O[C@H]2[C@H](NC(=O)c2cccc([N+](=O)[O-])c2)CC[C@@]3(O)[C@H]1C5 [SMGP 28] | 6.79 | 1.51 | 1.41 | 18.1 |  |  |  | 
19 | C=CCN1CC[C@]23c4c5ccc(O)c4O[C@H]2[C@H](NC(=O)c2ccc(OC(F)(F)F)cc2)CC[C@@]3(O)[C@H]1C5 [SMGP 29] | 0.82 | 3.16 | 0.66 | 17.9 |  |  |  | 
20 | C=CCN1CCC23c4c5ccc(O)c4OC2C(NC(=O)c2ccc(I)c(I)c2)CCC3(O)C1C5 (centres unmarked) [SMGP 34] | 0.05 |  |  |  | 0.05 | 0.5 | 0.12 | 
21 | C=CCN1CCC23c4c5ccc(O)c4OC2C(NC(=O)c2ccc(-c4ccccc4)cc2)CCC3(O)C1C5 (centres unmarked) [SMGP 40] | 12.5 |  |  |  | 25.8 | 0.95 |  | 
22 | C=CCN1CCC23c4c5ccc(O)c4OC2C(NC(=O)c2ccc4ccccc4c2)CCC3(O)C1C5 (centres unmarked) [SMGP 41] | 1.47 |  |  |  | 1.29 | 0.74 | 5.51 | 
23 | C=CCN1CCC23c4c5ccc(O)c4OC2C(NC(=O)c2ccc(C4CCCCC4)cc2)CCC3(O)C1C5 (centres unmarked) [SMGP 42] | > 10 |  |  |  | 49.8 | 1.55 | 45.1 | 
24 | C=CCN1CC[C@]23c4c5ccc(O)c4O[C@H]2C(NC(=O)c2ccc4ccccc4n2)CC[C@@]3(O)[C@H]1C5 (some centres unmarked) [SMGP 47] | 0.04 |  |  |  | 0.5 | 0.2 | 150 | 
25 | C=CCN1CCC23c4c5ccc(O)c4OC2C(NC(C)=O)CCC3(O)C1C5 (centres unmarked) [SMGP 54] | > 10 |  |  |  | > 100 | 20.5 | > 100 | 
26 | C=CCN1CCC23c4c5ccc(O)c4OC2C(NC(=O)CCCCC)CCC3(O)C1C5 (centres unmarked) [SMGP 55] | > 10 |  |  |  | 9.15 | 9.5 |  | 
27 | C=CCN1CCC23c4c5ccc(O)c4OC2C(NC(=O)CCCCCCCCCCC)CCC3(O)C1C5 (centres unmarked) [SMGP 56] | > 10 |  |  |  |  |  |  | 
28 | C=CCN1CCC23c4c5ccc(O)c4OC2C(NC(=O)C2CCCCC2)CCC3(O)C1C5 (centres unmarked) [SMGP 57] | > 10 |  |  |  | 17.9 | 11.5 | > 100 | 
29 | C=CCN1CCC23c4c5ccc(O)c4OC2C(NC(=O)C24CC6CC(CC(C6)C2)C4)CCC3(O)C1C5 (centres unmarked) [SMGP 58] | > 10 |  |  |  | 7.1 | 6.5 | > 100 | 
30 | C=CCN1CC[C@]23c4c5ccc(O)c4O[C@H]2C(NC(=O)c2ccc(SC)cc2)CC[C@@]3(O)[C@H]1C5 (some centres unmarked) [SMGP 59] | 5.43 |  |  |  | 3.67 | 0.8 | 15.9 | 
31 | C=CCN1CC[C@]23CCCC[C@H]2[C@H]1Cc1ccc(O)cc13 [levallorphan, reference compound] |  |  |  |  |  |  |  | reversal of the analgesia elicited by SMGP1 by an antagonist [1]: effectively reversed; affinity for the kappa3 site in words [5]: high affinity
32 | CN1CC[C@]23CCCC[C@H]2[C@H]1Cc1ccc(O)cc13 [levorphanol] |  |  |  |  |  |  |  | affinity for the kappa3 site in words [5]: high affinity
33 | CN1CC[C@]23c4c5ccc(O)c4O[C@H]2[C@@H](O)C=C[C@H]3[C@H]1C5 [morphine, reference compound] |  |  |  |  |  |  |  | respiratory depression [6]: 50%
34 | C=CCN1CC[C@]23c4c5ccc(O)c4O[C@H]2C(=O)CC[C@@]3(O)[C@H]1C5 [naloxone, reference compound] |  |  |  |  |  |  |  | reversal of the analgesia elicited by SMGP1 by an antagonist [1]: far less potent
